Data taken from patent publication US20180369186A1, “METHOD FOR MODULATING AUTOPHAGY AND APPLICATIONS THEREOF” (JAWAHARLAL NEHRU CENTRE FOR ADVANCED SCIENTIFIC RESEARCH, priority 2015, published 2018).

Legend:
[1] = test system: autophagy (degradation of firefly luciferase); experiment: Dual luciferase assay to monitor autophagy in real time; assay type: cell-based, S. cerevisiae; conditions: 1 μM, 10 μM, 25 μM and 50 μM
Description: The S. cerevisiae shuttle vectors pRS306 (URA) and pRS305 (LEU) are used to clone the POT1 promoter and the Firefly and Renilla luciferase genes, respectively. The oleate responsive region of the POT1 promoter is amplified from yeast genomic DNA and along with the firefly and Renilla luciferase genes (firefly gene from pMY30 and Renilla gene from pRL-TK) is cloned into these vectors to obtain the constructs pPM3 and pPM5. These plasmid constructs are linearized using suitable restriction enzymes in the selection marker and transformed into wild type strains of S. cerevisiae and P. pastoris by standard transformation methods-Lithium acetate or PEG based transformation. […]
To validate the luciferase assay developed in the laboratory, it is compared to the conventional Pot1-GFP processing assay, Both pexophagy and general autophagy are measured by following the rates of degradation of firefly and Renilla activities (FIG. 1A).
Thus, a 3 standard deviation (SD) parameter is used as a criterion to obtain the hits from the primary screen. […] Both the inhibitors show a dose dependent inhibition in autophagy as determined using luciferase assay wherein inhibition by concentrations 1 μM, 10 μM, 25 μM and 50 μM of the inhibitors are assessed and inhibition is observed to increase as concentration increases from 1 μM to 50 μM. […]

EGFR = EGFR trafficking (endocytosis-mediated EGFR degradation); assay type: cell-based, human; conditions: HeLa; 100 ng/ml EGF; 0-3 hours
Description: HeLa cells are plated on 6 well plates and allowed to attach on the surface. The cells are washed with PBS and then starved in DMEM (serum free media) for 3 hours. Pre-treatment with compounds is carried out for 1 hour, following which they are pulsed with 100 ng/ml of EGF and samples are collected at 0, 1, 2 and 3 hours.

[2] = test system: lace plant (Aponogeton madagascariensis) cells; experiment: Lace plant leaf MDC staining of punctate structures; assay type: cell-based
Description: Axenic lace plant cultures are grown in magenta boxes and prepared according to Gunawardena et al. Leaves in the window stage are removed from the corm and rinsed thoroughly with distilled water prior to being sectioned into 2 mm^2 pieces. For starvation treatments, window stage leaves are removed from the plant, placed in distilled water and kept in the dark overnight.
Leaf sections are stained with monodansylcadaverine (MDC; 300 μM) (Sigma, D4008) and simultaneously treated with autophagy modulators for 2 hours in the dark. (1 hour vacuum infiltration at 15 psi). Treatment times, along with stain and modulator applications are optimized using concentration gradients followed by microscopy. The optimized concentrations are 5 μM rapamycin (Enzo Life Sciences (BML A275-0005), 5 μM wortmannin (Santa Cruz Biotechnology, sc-3505), 1 μM concanamycin A (Santa Cruz Biotechnology, sc-202111), 50 μM Bay 11 (Sigma, B5556) and 50 μM ZPCK (Sigma, 860794).
Tissue sections are then rinsed and mounted in distilled water prior to being scanned using a Nikon Eclipse Ti confocal microscope (Nikon 40X/1.30, Plan Fluor, 405 nm excitation and 450/30 nm emission). Areoles in the early phases of PCD are scanned to avoid cellular debris. The mean number of puncta are quantified for each treatment group with a minimum of four independent experiments using NIS Elements Advanced Research software. Additionally, starvation treatment leaves are also exposed to 5 μM, wortmannin, 50 μM Bay11 and 50 μM ZPCK treatments and then qualitatively assessed via confocal microscopy.

LC3B-II = experiment: LC3 processing assay in HeLa cells; assay type: cell-based, human
Description: For EGFP-α-synuclein degradation assay, equal numbers of sub-confluent SH-SY5Y cells are seeded in 6 well dishes and allowed to attach for 24 h. Cells are transfected with EGFP-α-synuclein plasmid using Lipofectamine 2000 (Life technologies) and allowed to express for 24 h.
After treatments, cells are collected in Laemmli buffer to perform LC3 processing assay, P70S6K, GSK3β and 4E-BP1 immunoblotting. To validate EGFP-α-synuclein degradation by 6-Bio, treated cells are scraped and collected in growth medium. After washing with phosphate buffer, pellets are lysed in Laemmli buffer and boiled for 10 min.
Samples are electrophoresed on SDS-PAGE (8-15%) and then transferred onto PVDF (Bio-Rad) membrane using Transblot turbo (Bio-Rad). Transferred blots are stained with Ponceau S, probed with appropriate primary antibodies overnight and subsequently horseradish peroxidase conjugated secondary antibody. Signals are developed using enhanced chemiluminescence substrate (Clarity, Bio-Rad), imaged using a gel documentation system (G-Box, Syngene) and bands are quantified using image software (NIH). (FIGS. 4F and 5A)

| Compound | effect on rates of degradation of firefly luciferase (inhibition of autophagy) [1] | degradation of EGFR over time upon EGF treatment (EGFR) | mean number of punctate structures per cell (MDC) ([2]; 2 hours, 5 μM wortmannin, 50 μM Bay11, 1 μM concanamycin A, rapamycin, 50 μM ZPCK, control 0.99±0.12) | puncta in overnight starvation leaves ([2]; overnight starvation combined with 5 μM wortmannin, 50 μM Bay11 or 50 μM ZPCK) | LC3-II levels (LC3B-II; 2 h) | LC3B-II accumulated in presence of E64D and Pepstatin A (LC3B-II; with lysosomal protease inhibitors, vs 6-Bio only) |
| --- | --- | --- | --- | --- | --- | --- |
| Cc1ccc(S(=O)(=O)/C=C/C#N)cc1 [Bay11, 3-[(4-methylphenyl)sulfonyl]-(2E)-propenenitrile] | dose dependent effect | no difference in the degradation of EGFR | 0.28±0.07 | fewer puncta | – | – |
| O=C1Nc2cc(Br)ccc2/C1=C1/Nc2ccccc2/C1=N\O [6-Bio, (2′Z,3′E)-6-Bromoindirubin-3′-oxime] | – | – | – | – | increases LC3-II | significantly more |
